This note sets out measurements from US10145848B2, “Small-molecule hydrophobic tagging of fusion proteins and induced degradation of same” (YALE UNIVERSITY, priority 2010, dated 2018).

Where only a bound is given, the exact number is not on record here.

Assay [1] has as its target T1, HA-EGFP-HaloTag fusion protein (Rhodococcus rhodochrous, UniProt P0A3G2, C176G/H272F/K175M/Y273L).
T1 construct: The HaloTag protein was obtained from pHT2 vector (Promega); expressed in transfected cells
The assay is described as follows: Immunoblotting of HA-EGFP-HaloTag in Flp-In 293 cells. Format: cell-based. The procedure:
Flp-In 293 cells expressing HA-EGFP-HaloTag were treated with indicated concentrations of HyT13 for 24 hours. The lysates were probed with anti-HA and anti-β-actin antibodies, with β-actin serving as a loading control. Shown is quantification of three separate experiments, with error bars representing SEM.
Flp-In 293 cells expressing HA-EGFP-HaloTag cells were treated for the indicated times with 1 μM HyT13 and the lysates were probed with anti-HA and anti-β-actin antibodies. The rightmost sample was treated with HyT13 for 24 hours, after which HyT13-free media was provided for 24 hours. Shown is quantification of three separate experiments, with error bars representing SEM.
The indicated cells were washed twice with cold PBS and the cells were lysed in lysis buffer (1×PBS, 1% NP-40, 1 mM EDTA, 40 mM HEPES) with protease inhibitors. The lysates were cleared by centrifugation at 10,000 g for 5 min. The total protein concentration was determined by Bradford assay and 50 μg of protein was loaded onto an 8% Bis-Tris gel. To solubilize polyubiquitinated and aggregated proteins upon proteasome inhibition^42 samples generated for FIG. 12d were lysed with a SDS lysis buffer (1×PBS, 1% NP-40, 1% SDS, 1% sodium deoxycholate, 1 mM EDTA, 40 mM HEPES) with protease inhibitors. The blots were processed by standard procedures with indicated antibodies, and the band intensities were quantified by ImageJ.
As the luciferase assay relied on the loss-of-activity of the luciferase-HaloTag fusion protein, we wanted to determine whether the decrease in luciferase activity resulted from the degradation of the entire fusion protein or perhaps simply inhibition of luciferase activity. We generated a stable Flp-In 293 cell line with a single integration site containing HA-EGFP-HaloTag fusion protein, and employed this cell line to perform kinetic studies with HyT13. […] Consistent with our previous observations, treatment of these cells with 1 μM of HyT13 for 24 hours reduced the mean fluorescence intensity of cells almost 7-fold. Together, these findings provide the first experimental evidence that hydrophobic tagging represents a viable strategy for the control of protein levels.
A general note: Immunoblotting shows a protein as a band on a membrane.

For assay [2], the target named is T2, HA-HaloTag-Smad5 (Rhodococcus rhodochrous, UniProt P0A3G2, C176G/H272F/K175M/Y273L).
T2 construct: The HaloTag protein was obtained from pHT2 vector (Promega); Danio rerio Smad5 (fusion partner); expressed in transfected cells; host or cells: zebrafish (TLF line) embryos injected with in vitro transcribed cRNA at the one-cell stage
The assay is described as follows: Zebrafish embryo HA-HaloTag-Smad5 degradation (immunoblot). The class given is in vivo, Danio rerio. The conditions noted are these: 10 μM, 24 hours. Here is the method:
The wild-type fish line TLF was used for this study. The HA-HaloTag-Smad5 in pCS2+ plasmid was in vitro transcribed with the SP6 transcription kit (Ambion). The mRNA was injected at 100 ng/μL at the one cell stage and embryos were raised to the 256-cell stage, when they were moved to glass depression slides (10-per-well) and put in 1 ml E2 media with or without HyT13 (10 μM). Embryos were cultured at 28.6° C. for 24 hours and then dechorionated and de-yolked as described^43. Approximately 60 embryos per condition were collected for immunoblot analysis, as described above.
We also explored the possibility of employing the hydrophobic tagging system in the zebrafish Danio rerio. We injected HA-HaloTag-Smad5 cRNA into zebrafish embryos and then treated the embryos with either vehicle or HyT13.

Regarding `O=C(CC12CC3CC(CC(C3)C1)C2)NCCOCCOCCCCCCCl` [HyT13, 2-((3r,5r,7r)-Adamantan-1-yl)-N-(2-(2-((6-chlorohexyl)oxy)ethoxy)ethyl)acetamide], in assay [1] (1 μM HyT13), the “time to 50% degradation” value is at most 1.5 h and the “time to full degradation effect” value was at most 8 h. Further, the “protein level after removal of compound” value in assay [1] (1 μM for 24 hours, then removed for 24 hours) is given as “recovered to half the starting levels”. Also, the “concentration at which maximal degradation effect is achieved” value in assay [1] (24 hours, immunoblotting) is 100 nM. The DC50 in assay [1] (read-out: IC50 of fusion protein degradation, 24 hours, Flp-In 293 cells) was 21 nM. Further, the “degradation of fusion protein in zebrafish embryos” value in assay [2] is “very efficiently degraded”.
